Patent US7879876B2, “Sulfonamide derivatives and use thereof for the modulation of metalloproteinases” (Merck Serono SA, priority 2005, dated 2011)

Tests used:
Assay type in all cases: biochemical
human ADAM17 (TACE) = human ADAM17 (TACE) (Homo sapiens, UniProt P78536); assay: TACE enzyme inhibition assay
Protocol: (§1) Compounds of the invention were tested to assess their activities as inhibitors of MMP-1, MMP-2, MMP-9, MMP-14, MMP-12 and TACE. MMP-9 Assay Protocol
Compounds of the invention can be tested for inhibitory activity against human ADAM17 in an assay using human Mca-(endo-1a-Dap(Dnp)-TNF-alpha(−5 to +6)amide as substrate (FEBS Letters, 2000, 275-279).
Stock solutions are prepared as followed: • Assay Buffer: 20 mM Hepes pH 7.5 (Fluka) containing 0.05% Brij 35 (Fluka) • Substrate: 6.1 mM human Mca-(endo-1a-Dap(Dnp)-TNF-alpha(−5 to +6)amide (Bachem) stock solution in 100% DMSO (stored at −20° C.); diluted to 5 μM in assay buffer. • Enzyme: Recombinant human ADAM17, appropriately diluted in assay buffer (1.5 μg/ml).
Test Compounds are prepared initially as 10 mM compound solution in 100% DMSO, diluted to 1 mM in 100% DMSO, then serially diluted 3-fold in 100% DMSO across a 96-well microtitre plate. Assay concentration range is typically between 100 μM to 0.01 nM. The assay is performed in a total volume of 100 μL per well in 96-well microtitre plates. Appropriate concentrations of test compounds dissolved in 10 μL of DMSO are added to the wells, followed by substrate solution (50 μL, 5 μM prepared by dilution of DMSO stock in assay buffer) and enzyme solution (40 μL). For each as say ten concentrations of test compound are examined in […]. Control wells lack either enzyme or test compound. The reactions are incubated at room temperature for 1.5 hours. The fluorescence at 405 nm is measured immediately with a fluorometer using 355 nm excitation, without stopping the reaction.
(§2) The effect of the test compound is determined from the dose response curve generated by the 10 duplicate concentrations of inhibitor. The IC50 (the concentration of compound required to give a 50% decrease in enzyme activity) is obtained by fitting data to the equation, Y=a+((b−a)/(1+(c/X)^d)). (Y=inhibition achieved for a particular dose; X=the dose in nM; a=minimum y or zero % inhibition; b=maximum y or 100% inhibition; c=is the IC50; d=is the slope). The result is rounded to one significant figure.

collagenase (MMP-1) = target: T1, collagenase (MMP-1) (Homo sapiens, UniProt P03956); assay: MMP-1 enzyme inhibition assay (coumarin-labelled peptide substrate); conditions: for inhibition at 5 µM: read-out: percentage inhibition MMP1
T1 sequence (P03956 100-469): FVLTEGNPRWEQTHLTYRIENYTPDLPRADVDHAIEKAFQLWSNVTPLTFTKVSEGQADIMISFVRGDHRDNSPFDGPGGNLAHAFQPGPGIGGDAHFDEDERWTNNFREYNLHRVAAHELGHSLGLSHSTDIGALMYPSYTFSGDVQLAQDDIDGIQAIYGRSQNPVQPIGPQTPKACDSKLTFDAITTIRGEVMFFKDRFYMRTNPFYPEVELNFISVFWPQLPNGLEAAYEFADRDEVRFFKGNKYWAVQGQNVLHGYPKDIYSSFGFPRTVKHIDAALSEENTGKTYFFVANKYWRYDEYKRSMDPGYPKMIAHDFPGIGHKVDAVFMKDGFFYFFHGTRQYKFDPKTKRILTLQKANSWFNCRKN
Protocol: as §1
(§3) Compounds of the invention were tested for inhibitory activity against 92 kDa gelatinase (MMP-9) in an assay using a coumarin-labeled peptide substrate, (7-methoxycoumarin-4-yl)acetyl-Pro-Leu-Gly-Leu-(3-[2,4-dinitrophenyl]-L-2,3diaminopropionyl)-Ala-Arg-NH2 (McaPLGLDpaAR) (Knight et al, FEBS Lett. 1992; 263-266).
(§4) Stock solutions were made up as follows: Assay Butter: 100 mM Tris-HCl pH 7.6 containing 100 mM NaCl, 10 mM CaCl2, and 0.05% Brij 35.
(§5) Substrate: 0.4 mM McaPLGLDpaAR (from Bachem) (0.437 mg/ml) stock solution in 100% DMSO (stored at −20° C.). Dilute to 8 μM in assay butter.
(§6) Enzyme: Recombinant human 92 kDa gelatinase (MMP-9; APMA (4-aminophenyl mercuric acetate)-activated if necessary) appropriately diluted in assay butter.
(§7) Test Compounds were prepared initially as 10 mM compound solution in 100% DMSO, diluted to 1 mM in 100% DMSO, then serially diluted 3-fold in 100% DMSO across columns 1-10 of a 96-well microtitre plate Assay concentration range, 100 μM (column 1) to 5.1 nM (column 10).
(§8) The assay was performed in a total volume of 100 μL per well in 96-well microtitre plates. Activated enzyme (20 μL) was added to the wells followed by 20 μL of assay butter. Appropriate concentrations of test compounds dissolved in 10 μL of DMSO were then added followed by 50 μL of McaPLGLDpaAR (8 μM, prepared by dilution of DMSO stock in assay butter). For each as say ten concentrations of test compound were examined in duplicate. Control wells lack either enzyme or test compound. The reactions were incubated at 37° C. for 2 hours. The fluorescence at 405 nm was measured immediately with an SLT Fluostar fluorometer (SL T Labinstruments GmbH, Grödig, Austria) using 320 nm excitation, without stopping the reaction.
as §2, with “compound was” for “compound is”, “activity) was” for “activity) is”, “result was” for “result is”
(§9) Compounds of the invention were tested for inhibitory activity against collagenase (MMP-1) in an assay using a coumarin-labelled peptide substrate, (7-methoxycoumarin-4-yl)acetyl-Pro-Leu-Gly-Leu-(3-[2,4-dinitrophenyl]-L-2,3diaminopropionyl)-Ala-Arg-NH2 (Mca PLGLDpaAR) (Knight et al, 1992, above). The protocol for this assay was as described for the MMP-9 assay above.

[1] = target: 92 kDa gelatinase (MMP-9) (Homo sapiens, UniProt P14780); assay: MMP-9 enzyme inhibition assay (coumarin-labeled peptide substrate); conditions: for inhibition at 5 µM: read-out: percentage inhibition MMP9; for IC50: read-out: IC50 MMP9
Chain of 92 kDa gelatinase (MMP-9) (P14780 107-707 limits assumed): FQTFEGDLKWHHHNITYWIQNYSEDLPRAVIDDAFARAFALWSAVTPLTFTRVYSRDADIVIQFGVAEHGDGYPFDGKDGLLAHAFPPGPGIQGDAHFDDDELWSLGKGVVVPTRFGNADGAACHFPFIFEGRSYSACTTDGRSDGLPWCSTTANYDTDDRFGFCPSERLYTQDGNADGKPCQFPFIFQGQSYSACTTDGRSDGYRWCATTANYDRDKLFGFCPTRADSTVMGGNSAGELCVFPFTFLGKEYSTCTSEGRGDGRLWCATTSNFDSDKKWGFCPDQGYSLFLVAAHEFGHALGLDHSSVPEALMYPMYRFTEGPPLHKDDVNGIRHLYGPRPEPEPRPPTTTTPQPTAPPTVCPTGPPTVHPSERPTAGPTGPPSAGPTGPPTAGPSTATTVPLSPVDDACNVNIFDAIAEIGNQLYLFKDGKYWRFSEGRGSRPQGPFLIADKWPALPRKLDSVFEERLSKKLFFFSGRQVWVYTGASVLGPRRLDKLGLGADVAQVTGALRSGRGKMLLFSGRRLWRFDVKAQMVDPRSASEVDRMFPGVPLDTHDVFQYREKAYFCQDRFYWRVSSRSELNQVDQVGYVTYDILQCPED
Protocol: as §1, §3, §4, §5, §6, §7, §8
as §2, with “compound was” for “compound is”, “activity) was” for “activity) is”, “result was” for “result is”

MMP-14 = MMP-14 (Homo sapiens, UniProt P50281); assay: MMP-14 enzyme inhibition assay (coumarin-labelled peptide substrate); conditions: for inhibition at 5 µM / inhibition at 0.1 µM: read-out: percentage inhibition MMP14
Protocol: as §1, §3, §4, §5, §6, §7, §8
as §2, with “compound was” for “compound is”, “activity) was” for “activity) is”, “result was” for “result is”
as §9, with “MMP-14” for “collagenase (MMP-1)”, “PLGLD paAR)” for “PLGLDpaAR)”

Chain of human ADAM17 (TACE) (P78536 215-824): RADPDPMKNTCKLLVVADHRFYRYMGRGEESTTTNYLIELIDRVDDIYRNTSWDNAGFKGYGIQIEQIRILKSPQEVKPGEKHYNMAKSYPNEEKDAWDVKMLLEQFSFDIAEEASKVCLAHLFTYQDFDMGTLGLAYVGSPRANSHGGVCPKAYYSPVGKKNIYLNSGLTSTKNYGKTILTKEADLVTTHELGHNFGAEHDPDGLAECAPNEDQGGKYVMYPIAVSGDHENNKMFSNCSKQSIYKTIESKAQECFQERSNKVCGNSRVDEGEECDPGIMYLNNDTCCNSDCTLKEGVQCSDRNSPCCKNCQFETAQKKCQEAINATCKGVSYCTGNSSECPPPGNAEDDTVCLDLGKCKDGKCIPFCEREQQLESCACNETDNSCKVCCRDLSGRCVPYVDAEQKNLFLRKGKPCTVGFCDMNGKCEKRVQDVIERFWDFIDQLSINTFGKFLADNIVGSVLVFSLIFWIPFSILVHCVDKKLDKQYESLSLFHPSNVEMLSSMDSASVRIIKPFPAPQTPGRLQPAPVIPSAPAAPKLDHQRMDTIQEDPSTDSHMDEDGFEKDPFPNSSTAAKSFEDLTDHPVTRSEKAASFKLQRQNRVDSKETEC

In the case of `CCC(CC)C(CS(=O)(=O)N1CCc2ccc(OC)cc2C1)N(O)C=O` (stereo not drawn) [Example 38, N-(2-ethyl-1-{[(7-methoxy-3,4-dihydroisoquinolin-2(1H)-yl)sulfonyl]methyl}butyl)-N-hydroxyformamide], the IC50 (human ADAM17 (TACE)) is reported as 276 nM, the inhibition at 5 µM (collagenase (MMP-1)) is reported as 17% and the inhibition at 5 µM [1] is reported as 50%. It also gave an inhibition at 5 µM (MMP-14) of 49%.
Work on `O=CN(O)C(CS(=O)(=O)N1CCc2ccc(Cl)cc2C1)C1CCCC1` (stereo not drawn) [Example 21, N-{2-[(7-chloro-3,4-dihydroisoquinolin-2(1H)-yl)sulfonyl]-1-cyclopentylethyl}-N-hydroxyformamide] yielded an IC50 (human ADAM17 (TACE)) of 56 nM, an inhibition at 5 µM (collagenase (MMP-1)) of 20% and an IC50 [1] greater than 5000 nM. For the same compound, the inhibition at 5 µM (MMP-14) was 45%.
For `CC1(C)OC[C@H](C(CS(=O)(=O)N2CCc3ccc(Cl)cc3C2)N(O)C=O)O1` (stereo partly drawn) [Example 19, N-{2-[(7-chloro-3,4-dihydroisoquinolin-2(1H)-yl)sulfonyl]-1-[(4S)-2,2-dimethyl-1,3-dioxolan-4-yl]ethyl}-N-hydroxyformamide], the IC50 (human ADAM17 (TACE)) was 23 nM, the inhibition at 5 µM (collagenase (MMP-1)) was 45% and the IC50 [1] was greater than 5000 nM. For the same compound, the inhibition at 0.1 µM (MMP-14) was 10% and the inhibition at 5 µM (MMP-14) was 81%.
In the case of `O=CN(O)[C@H](CS(=O)(=O)N1CCc2ccc(C(F)(F)F)cc2C1)[C@H]1CCCO1` [Example 27, N-hydroxy-N-((1S)-1-[(2R)-tetrahydrofuran-2-yl]-2-{[7-(trifluoromethyl)-3,4-dihydroisoquinolin-2(1H)-yl]sulfonyl}ethyl)formamide], the IC50 (human ADAM17 (TACE)) is reported as 506 nM, the inhibition at 5 µM (collagenase (MMP-1)) is reported as 30% and the inhibition at 5 µM [1] is reported as 13%. The inhibition at 5 µM (MMP-14) was 41%.
Work on `CC(C)(C)c1ccc2c(c1)CN(S(=O)(=O)CC(COCc1ccccc1)N(O)C=O)CC2` (stereo not drawn) [Example 57, N-(2-(benzyloxy)-1-{[(7-tert-butyl-3,4-dihydroisoquinolin-2(1H)-yl)sulfonyl]methyl}ethyl)-N-hydroxyformamide] yielded an IC50 (human ADAM17 (TACE)) greater than 5000 nM, an inhibition at 5 µM (collagenase (MMP-1)) of 0% and an inhibition at 5 µM [1] of 0%. It also gave an inhibition at 5 µM (MMP-14) of 0%.
For `O=CN(O)C(CS(=O)(=O)N1CCc2ccc(F)cc2C1)C1CCN(Cc2ccccc2)CC1` (stereo not drawn) [Example 53, N-{1-(1-benzylpiperidin-4-yl)-2-[(7-fluoro-3,4-dihydro-isoquinolin-2(1H)-yl)sulfonyl]ethyl}-N-hydroxyformamide], the IC50 (human ADAM17 (TACE)) was 245 nM, the inhibition at 5 µM (collagenase (MMP-1)) was 16% and the inhibition at 5 µM [1] was 5%. For the same compound, the inhibition at 5 µM (MMP-14) was 34%.
`O=CN(O)C(CS(=O)(=O)N1CCc2ccccc2C1)C1CC1` (stereo not drawn) [Example 4, N-[1-cyclopropyl-2-(3,4-dihydroisoquinolin-2(1H)-ylsulfonyl)ethyl]-N-hydroxyformamide] was tested, and the IC50 (human ADAM17 (TACE)) was 114 nM, the inhibition at 5 µM (collagenase (MMP-1)) was 19% and the IC50 [1] was greater than 5000 nM. It also gave an inhibition at 5 µM (MMP-14) of 29%.
Work on `CCCCCC(CS(=O)(=O)N1CCc2ccccc2C1)N(O)C=O` (stereo not drawn) [Example 3, N-{1-[(3,4-dihydroisoquinolin-2(1H)-ylsulfonyl)methyl]hexyl}-N-hydroxyformamide] yielded an IC50 (human ADAM17 (TACE)) of 28 nM, an inhibition at 5 µM (collagenase (MMP-1)) of 31% and an IC50 [1] greater than 5000 nM. For the same compound, the inhibition at 5 µM (MMP-14) was 67%.
`O=CN(O)C(CS(=O)(=O)N1CCc2ccc(-c3ccc(F)cc3)cc2C1)C1CC1` (stereo not drawn) [Example 75, N-(1-cyclopropyl-2-{[7-(4-fluorophenyl)-3,4-dihydro-isoquinolin-2(1H)-yl]sulfonyl}ethyl)-N-hydroxyformamide] was tested, and the IC50 (human ADAM17 (TACE)) was 394 nM, the inhibition at 5 µM (collagenase (MMP-1)) was 0% and the inhibition at 5 µM [1] was 71%. It also gave an inhibition at 0.1 µM (MMP-14) of 11% and an inhibition at 5 µM (MMP-14) of 92%.
Work on `CC(C)(C)OC(=O)N1CCC[C@@H]1[C@@H](CS(=O)(=O)N1CCc2cc(Cl)c(Cl)cc2C1)N(O)C=O` (racemic) [Example 44, tert-butyl (2RS)-2-{(1SR)-2-[(6,7-dichloro-3,4-dihydro-isoquinolin-2(1H)-yl)sulfonyl]-1-[formyl(hydroxy)amino]ethyl}pyrrolidine-1-carboxylate] yielded an IC50 (human ADAM17 (TACE)) of 371 nM, an inhibition at 5 µM (collagenase (MMP-1)) of 9% and an inhibition at 5 µM [1] of 21%. It also gave an inhibition at 0.1 µM (MMP-14) of 5% and an inhibition at 5 µM (MMP-14) of 83%.
In the case of `CC1(C)OC[C@H](C(CS(=O)(=O)N2CCc3ccccc3C2)N(O)C=O)O1` (stereo partly drawn) [Example 2, N-{2-(3,4-dihydroisoquinolin-2(1H)-ylsulfonyl)-1-[(4S)-2,2-dimethyl-1,3-dioxolan-4-yl]ethyl}-N-hydroxyformamide], the IC50 (human ADAM17 (TACE)) is reported as 33 nM, the IC50 (collagenase (MMP-1); read-out: IC50 MMP1) is reported as greater than 5000 nM and the IC50 [1] is reported as greater than 5000 nM. For the same compound, the IC50 (MMP-14; read-out: IC50 MMP14) was greater than 5000 nM.
Compound `O=CN(O)C(CCO)CS(=O)(=O)N1CCc2ccc(Cl)cc2C1` (stereo not drawn) [Example 48, N-(1-{[(7-chloro-3,4-dihydroisoquinolin-2(1H)-yl)sulfonyl]-methyl}-3-hydroxypropyl)-N-hydroxyformamide] has an IC50 (human ADAM17 (TACE)) of 269 nM, an inhibition at 5 µM (collagenase (MMP-1)) of 26% and an inhibition at 5 µM [1] of 8%. For the same compound, the inhibition at 5 µM (MMP-14) was 41%.
`O=CN(O)[C@@H](CS(=O)(=O)N1CCc2ccc(Cl)cc2C1)[C@H]1CCCO1` [Example 22, N-{(1R)-2-[(7-chloro-3,4-dihydroisoquinolin-2(1H)-yl)sulfonyl]-1-[(2R)-tetrahydrofuran-2-yl]ethyl}-N-hydroxyformamide] gave an IC50 (human ADAM17 (TACE)) of 389 nM, an inhibition at 5 µM (collagenase (MMP-1)) of 0% and an IC50 [1] greater than 5000 nM. It also gave an inhibition at 5 µM (MMP-14) of 0%.
In the case of `O=CN(O)C(CO)CS(=O)(=O)N1CCc2cc(Cl)c(Cl)cc2C1` (stereo not drawn) [Example 49, N-[2-[(6,7-dichloro-3,4-dihydroisoquinolin-2(1H)-yl)-sulfonyl]-1-(hydroxymethyl)ethyl]-N-hydroxyformamide], the IC50 (human ADAM17 (TACE)) is reported as 239 nM, the inhibition at 5 µM (collagenase (MMP-1)) is reported as 29% and the inhibition at 5 µM [1] is reported as 43%. It also gave an inhibition at 0.1 µM (MMP-14) of 14% and an inhibition at 5 µM (MMP-14) of 86%.
